pIC50: −log10 of the molar value. Where a name gives a salt, the structure may show the parent alone.

Usually pIC50 stands for −log10 of the IC50, conventionally taken in molar units.

For this assay, the system named is JAK1-dependent STAT6 phosphorylation downstream of IL-13 stimulation in TF-1 human erythroleukemia cells. Kind of assay: cells. The note with it: TF-1, read-out: IL-13-pSTAT6 IC50.
Consider `O=C(c1ccc(Nc2nc3c(N4CCC(O)(c5ccc(Cl)cc5)CC4)cccn3n2)cc1)N1CCOC2(CCNCC2)C1` [Example 1-231, [4-[[8-[4-(4-chlorophenyl)-4-hydroxy-1-piperidyl]-[1,2,4]triazolo[1,5-a]pyridin-2-yl]amino]phenyl]-(1-oxa-4,9-diazaspiro[5.5]undecan-4-yl)methanone], for which the pIC50 is 6.04. As for `O=C(c1ccc(Nc2nc3c(N4CCC(O)(c5ccc(Cl)cc5)CC4)cccn3n2)cc1)N1CCCC12CCCNC2` (stereo not shown) [Example 1-233, [4-[[8-[4-(4-chlorophenyl)-4-hydroxy-1-piperidyl]-[1,2,4]triazolo[1,5-a]pyridin-2-yl]amino]phenyl]-(1,9-diazaspiro[4.5]decan-1-yl)methanone], the pIC50 is 6.78. Turning to `O=C(c1ccc(Nc2nc3c(N4CCC(O)(c5ccc(Cl)cc5)CC4)cccn3n2)cc1)N1C[C@@H]2CCN[C@@H]2C1` [Example 1-234], the pIC50 is 7.44. For the compound `O=C(c1ccc(Nc2nc3c(N4CCC(O)(c5ccc(Cl)cc5)CC4)cccn3n2)cc1)N1C[C@H]2CNC[C@H]2C1` [Example 1-235, [(3aR,6aS)-2,3,3a,4,6,6a-hexahydro-1H-pyrrolo[3,4-c]pyrrol-5-yl]-[4-[[8-[4-(4-chlorophenyl)-4-hydroxy-1-piperidyl]-[1,2,4]triazolo[1,5-a]pyridin-2-yl]amino]phenyl] methanone], the pIC50 is 6.51. Take `O=C(N[C@H]1[C@@H]2CNC[C@@H]21)c1ccc(Nc2nc3c(N4CCC(O)(c5ccc(Cl)cc5)CC4)cccn3n2)cc1` [Example 1-238, N-[(1R,5S)-3-azabicyclo[3.1.0]hexan-6-yl]-4-[[8-[4-(4-chlorophenyl)-4-hydroxy-1-piperidyl]-[1,2,4]triazolo[1,5-a]pyridin-2-yl]amino]benzamide]: the negative logarithm of the IC50 (pIC50) is 6.74. Regarding `O=C(c1ccc(Nc2nc3c(N4CCC(O)(c5ccc(Cl)cc5)CC4)cccn3n2)cc1)N1CC[C@H]2CNC[C@H]21` [Example 1-241, [(3aS,6aS)-3,3a,4,5,6,6a-hexahydro-2H-pyrrolo[2,3-c]pyrrol-1-yl]-[4-[[8-[4-(4-chlorophenyl)-4-hydroxy-1-piperidyl]-[1,2,4]triazolo[1,5-a]pyridin-2-yl]amino]phenyl] methanone], the negative logarithm of the IC50 (pIC50) is 6.94. As for `CN1CCC(N(C)C(=O)c2ccc(Nc3nc4c(N5CCC(C)(c6ccc(Cl)cc6)CC5)cccn4n3)cc2)CC1` [Example 1-262, 4-[[8-[4-(4-chlorophenyl)-4-methyl-1-piperidyl]-[1,2,4]triazolo[1,5-a]pyridin-2-yl]amino]-N-methyl-N-(1-methyl-4-piperidyl)benzamide], the figure is 6.92; as for `CN1CCC(N(C)C(=O)c2ccc(Nc3nc4c(N5CCC(CC#N)(c6ccc(Cl)c(F)c6)CC5)cccn4n3)cc2)CC1` [Example 1-263, 4-[[8-[4-(4-chloro-3-fluoro-phenyl)-4-(cyanomethyl)-1-piperidyl]-[1,2,4]triazolo[1,5-a]pyridin-2-yl]amino]-N-methyl-N-(1-methyl-4-piperidyl)benzamide], 7.74. Consider `CNC(=O)CC1(c2ccc(Cl)cc2)CCN(c2cccn3nc(Nc4ccc(C(=O)N(C)C5CCN(C)CC5)cc4)nc23)CC1` [Example 1-299, 4-[[8-[4-(4-chlorophenyl)-4-[2-(methylamino)-2-oxo-ethyl]-1-piperidyl]-[1,2,4]triazolo[1,5-a]pyridin-2-yl]amino]-N-methyl-N-(1-methyl-4-piperidyl)benzamide], for which the pIC50 was 7.25. On to `CN1CCC(N(C)C(=O)c2ccc(Nc3nc4c(N5CCC(CC(=O)O)(c6ccc(Cl)cc6)CC5)cccn4n3)cc2)CC1` [Example 1-301, 2-[4-(4-chlorophenyl)-1-[2-[4-[methyl-(1-methyl-4-piperidyl)carbamoyl]anilino]-[1,2,4]triazolo[1,5-a]pyridin-8-yl]-4-piperidyl]acetic acid], for which the negative-log IC50 (pIC50) was 6.75.

Turning to `CCOC(=O)N1CC=C(c2cccn3nc(Nc4ccc(C(=O)N(C)C5CCN(C)CC5)cc4)nc23)CC1` [Example 2-1, ethyl 4-[2-[4-[methyl-(1-methyl-4-piperidyl)carbamoyl]anilino]-[1,2,4]triazolo[1,5-a]pyridin-8-yl]-3,6-dihydro-2H-pyridine-1-carboxylate], the negative logarithm of the IC50 (pIC50) is 7.63.

As to `CN1CCC(N(C)C(=O)c2ccc(Nc3nc4c(C5=CCN(C(=O)OC6CC6)CC5)cccn4n3)cc2)CC1` [Example 2-2, cyclopropyl 4-[2-[4-[methyl-(1-methyl-4-piperidyl)carbamoyl]anilino]-[1,2,4]triazolo[1,5-a]pyridin-8-yl]-3,6-dihydro-2H-pyridine-1-carboxylate], the pIC50 is 7.47. For `CN1CCC(N(C)C(=O)c2ccc(Nc3nc4c(C5=CCN(C(=O)CC(C)(C)O)CC5)cccn4n3)cc2)CC1` [Example 2-3, 4-[[8-[1-(3-hydroxy-3-methyl-butanoyl)-3,6-dihydro-2H-pyridin-4-yl]-[1,2,4]triazolo[1,5-a]pyridin-2-yl]amino]-N-methyl-N-(1-methyl-4-piperidyl)benzamide] the value was 6.79; for `CN1CCC(N(C)C(=O)c2ccc(Nc3nc4c(C5=CCN(C(=O)N6CC(C#N)C6)CC5)cccn4n3)cc2)CC1` [Example 2-5, 4-[[8-[1-(3-cyanoazetidine-1-carbonyl)-3,6-dihydro-2H-pyridin-4-yl]-[1,2,4]triazolo[1,5-a]pyridin-2-yl]amino]-N-methyl-N-(1-methyl-4-piperidyl)benzamide], 5.96; for `CN1CCC(N(C)C(=O)c2ccc(Nc3nc4c(C5=CCN(C(=O)OCC#N)CC5)cccn4n3)cc2)CC1` [Example 2-7, cyanomethyl 4-[2-[4-[methyl-(1-methyl-4-piperidyl)carbamoyl]anilino]-[1,2,4]triazolo[1,5-a]pyridin-8-yl]-3,6-dihydro-2H-pyridine-1-carboxylate], 7.37. For the compound `CN1CCC(N(C)C(=O)c2ccc(Nc3nc4c(C5=CCN(Cc6ccccc6)CC5)cccn4n3)cc2)CC1` [Example 2-8, 4-[[8-(1-benzyl-3,6-dihydro-2H-pyridin-4-yl)-[1,2,4]triazolo[1,5-a]pyridin-2-yl]amino]-N-methyl-N-(1-methyl-4-piperidyl)benzamide; hydrochloride], the pIC50 is 6.07. With `CN1CCC(N(C)C(=O)c2ccc(Nc3nc4c(C5=CCN(C(=O)CCO)CC5)cccn4n3)cc2)CC1` [Example 2-9, 4-[[8-[1-(3-hydroxypropanoyl)-3,6-dihydro-2H-pyridin-4-yl]-[1,2,4]triazolo[1,5-a]pyridin-2-yl]amino]-N-methyl-N-(1-methyl-4-piperidyl)benzamide], the pIC50 is 6.21.

For the compound `CCOC(=O)N1CC=C(c2cccn3nc(Nc4ccc(C(=O)NCC(C)(C)N5CCOCC5)cc4)nc23)CC1` [Example 2-11, ethyl 4-[2-[4-[(2-methyl-2-morpholino-propyl)carbamoyl]anilino]-[1,2,4]triazolo[1,5-a]pyridin-8-yl]-3,6-dihydro-2H-pyridine-1-carboxylate], the pIC50 was 8.17. Turning to `CCOC(=O)N1CC=C(c2cccn3nc(Nc4ccc(C(=O)NCCC5CCNCC5)cc4)nc23)CC1` [Example 2-13, ethyl 4-[2-[4-[2-(4-piperidyl)ethylcarbamoyl]anilino]-[1,2,4]triazolo[1,5-a]pyridin-8-yl]-3,6-dihydro-2H-pyridine-1-carboxylate], the pIC50 was 6.47.

Source of the values: patent US9873709B2 (priority 2013, dated 2018).
